The text below walks through data of US11453683B1, “KRas G12D inhibitors” (Mirati Therapeutics, Inc., priority 2019, dated 2022).

For this experiment, the system named is KRas G12D-mediated phosphorylation of ERK. Kind of experiment: Inhibition of KRas G12D-mediated phosphorylation of ERK in AGS cells. It counts as cell-based. The conditions noted are these: Homo sapiens; AGS cells expressing G12D, 3 hours, phospho-ERK normalized to GAPDH. The method in brief:
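In-cell Western: p-ERK Thr202/Tyr204 signal over GAPDH, as % of DMSO control, with IC50 from a 4-parameter curve. AGS cells seeded 40,000/well for 12-14 h, exposed to compound 3 h at 0.5% DMSO final, then formaldehyde-fixed and methanol-permeabilized.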

pIC50: −log10 of the molar value.

Take `Fc1c(-c2cccc3cccc(CC(F)F)c23)ncc2c(N3C[C@H]4CC[C@@H](C3)N4)nc(OCC34CCCN3CCC4)nc12` [Example 247, 4-((1R,5S)-3,8-diazabicyclo[3.2.1]octan-3-yl)-7-(8-(2,2-difluoroethyl)naphthalen-1-yl)-8-fluoro-2-((hexahydro-1H-pyrrolizin-7a-yl)methoxy)pyrido[4,3-d]pyrimidine]: the pIC50 is 5.37. With `CN(C)C(=O)NC[C@H]1CC[C@@]2(COc3nc(N4CC5CCC(C4)N5)c4cnc(-c5cccc6cccc(Cl)c56)c(F)c4n3)CCCN12` [Example 412, 3-((7a-(((4-(3,8-diazabicyclo[3.2.1]octan-3-yl)-7-(8-chloronaphthalen-1-yl)-8-fluoropyrido[4,3-d]pyrimidin-2-yl)oxy)methyl)hexahydro-1H-pyrrolizin-3-yl)methyl)-1,1-dimethylurea], the pIC50 was 5.32.

For `Fc1c(-c2c(OC(F)(F)F)ccc3[nH]ncc23)ncc2c(N3C[C@H]4CC[C@@H](C3)N4)nc(OCC34CCCN3CCC4)nc12` [Example 258, 4-((1R,5S)-3,8-diazabicyclo[3.2.1]octan-3-yl)-8-fluoro-2-((hexahydro-1H-pyrrolizin-7a-yl)methoxy)-7-(5-(trifluoromethoxy)-1H-indazol-4-yl)pyrido[4,3-d]pyrimidine], the pIC50 is 5.84.

With `Oc1cc(-c2ncc3c(N4C[C@H]5CC[C@@H](C4)N5)nc(N4CC5(CCOCC5)C4)nc3c2F)c2ccccc2c1` [Example 74, 4-(4-((1R,5S)-3,8-diazabicyclo[3.2.1]octan-3-yl)-8-fluoro-2-(7-oxa-2-azaspiro[3.5]nonan-2-yl)pyrido[4,3-d]pyrimidin-7-yl)naphthalen-2-ol], the pIC50 is 5.26. `O=C(OC[C@H]1CC[C@@]2(COc3nc(N4CC5CCC(C4)N5)c4cnc(-c5cccc6cccc(Cl)c56)c(F)c4n3)CCCN12)N1CCOCC1` [Example 445, ((3R,7aR)-7a-(((4-(3,8-diazabicyclo[3.2.1]octan-3-yl)-7-(8-chloronaphthalen-1-yl)-8-fluoropyrido[4,3-d]pyrimidin-2-yl)oxy)methyl)hexahydro-1H-pyrrolizin-3-yl)methyl morpholine-4-carboxylate] had a pIC50 of 6.89. Under `FCCc1cccc2cccc(-c3ncc4c(N5C[C@H]6CC[C@@H](C5)N6)nc(OCC56CCCN5CCC6)nc4c3F)c12` [Example 248, 4-((1R,5S)-3,8-diazabicyclo[3.2.1]octan-3-yl)-8-fluoro-7-(8-(2-fluoroethyl)naphthalen-1-yl)-2-((tetrahydro-1H-pyrrolizin-7a(5H)-yl)methoxy)pyrido[4,3-d]pyrimidine] stands 5.97; under `CN1C[C@H](NC(=O)c2cccc(S(=O)(=O)F)c2)C[C@H]1COc1nc(N2C[C@H]3CC[C@@H](C2)N3)c2cnc(-c3cccc4cccc(Cl)c34)c(F)c2n1` [Example 211, 3-(((3R,5S)-5-(((4-((1R,5S)-3,8-diazabicyclo[3.2.1]octan-3-yl)-7-(8-chloronaphthalen-1-yl)-8-fluoropyrido[4,3-d]pyrimidin-2-yl)oxy)methyl)-1-methylpyrrolidin-3-yl)carbamoyl)benzenesulfonyl fluoride tris(2,2,2-trifluoroacetate)], 4.87.

The molecule `Cc1cccc(-c2ncc3c(N4C[C@H]5CC[C@@H](C4)N5)nc(OCC45CCCN4CCC5)nc3c2F)c1Cl` [Example 276, 4-((1R,5S)-3,8-diazabicyclo[3.2.1]octan-3-yl)-7-(2-chloro-3-methylphenyl)-8-fluoro-2-((hexahydro-1H-pyrrolizin-7a-yl)methoxy)pyrido[4,3-d]pyrimidine] gave a pIC50 of 5.42. For the molecule `c1ccc2c(-c3cc4nc(OCC56CCCN5CCC6)nc(N5C[C@H]6CC[C@@H](C5)N6)c4cn3)cccc2c1` [Example 233, 4-((1R,5S)-3,8-diazabicyclo[3.2.1]octan-3-yl)-7-(naphthalen-1-yl)-2-((tetrahydro-1H-pyrrolizin-7a(5H)-yl)methoxy)pyrido[4,3-d]pyrimidine], the pIC50 was 4.81. `CN1CCC[C@H]1COc1nc(N2C[C@H]3CC[C@@H](C2)N3)c2cnc(-c3cc(O)cc4cccc(Cl)c34)c(F)c2n1` [Example 63, 4-(4-((1R,5S)-3,8-diazabicyclo[3.2.1]octan-3-yl)-8-fluoro-2-(((S)-1-methylpyrrolidin-2-yl)methoxy)pyrido[4,3-d]pyrimidin-7-yl)-5-chloronaphthalen-2-ol] showed a pIC50 of 6.73. The figure for `Fc1c(-c2c(C(F)(F)F)ccc3[nH]ncc23)ncc2c(N3C[C@H]4CC[C@@H](C3)N4)nc(OCC34CCCN3CCC4)nc12` [Example 344, 4-((1R,5S)-3,8-diazabicyclo[3.2.1]octan-3-yl)-8-fluoro-2-((tetrahydro-1H-pyrrolizin-7a(5H)-yl)methoxy)-7-(5-(trifluoromethyl)-1H-indazol-4-yl)pyrido[4,3-d]pyrimidine] is 5.09. As to `Fc1ccc2cccc(-c3ncc4c(N5C[C@H]6CC[C@@H](C5)N6)nc(OC[C@@]56CCCN5C[C@H](F)C6)nc4c3F)c2c1F` [Example 430, 4-((1R,5S)-3,8-diazabicyclo[3.2.1]octan-3-yl)-7-(7,8-difluoronaphthalen-1-yl)-8-fluoro-2-(((2R,7aS)-2-fluorotetrahydro-1H-pyrrolizin-7a(5H)-yl)methoxy)pyrido[4,3-d]pyrimidine], the pIC50 was 6.85.

In turn, `Oc1cc(-c2ncc3c(N4C[C@H]5CC[C@@H](C4)N5)nc(OCC45CCCN4CCC5)nc3c2F)c2c(Cl)c(F)ccc2c1` [Example 245, 4-(4-((1R,5S)-3,8-diazabicyclo[3.2.1]octan-3-yl)-8-fluoro-2-((hexahydro-1H-pyrrolizin-7a-yl)methoxy)pyrido[4,3-d]pyrimidin-7-yl)-5-chloro-6-fluoronaphthalen-2-ol] had a pIC50 of 7.63.

`CC(C)c1c(Cl)cccc1-c1ncc2c(N3C[C@H]4CC[C@@H](C3)N4)nc(OCC34CCCN3CCC4)nc2c1F` [Example 298, 4-((1R,5S)-3,8-diazabicyclo[3.2.1]octan-3-yl)-7-(3-chloro-2-isopropylphenyl)-8-fluoro-2-((hexahydro-1H-pyrrolizin-7a-yl)methoxy)pyrido[4,3-d]pyrimidine]: the pIC50 was 5.91. Under `Cc1nccn1CCOc1nc(N2CC3CCC(C2)N3)c2cnc(-c3cc(O)cc4ccccc34)c(F)c2n1` [Example 84, 4-(4-((1R,5S)-3,8-diazabicyclo[3.2.1]octan-3-yl)-8-fluoro-2-(2-(2-methyl-1H-imidazol-1-yl)ethoxy)pyrido[4,3-d]pyrimidin-7-yl)naphthalen-2-ol] stands 5.24. Under `Oc1ccc(C(F)(F)F)c(-c2ncc3c(N4C[C@H]5CC[C@@H](C4)N5)nc(OCC45CCCN4CCC5)nc3c2F)c1` [Example 373, 3-(4-((1R,5S)-3,8-diazabicyclo[3.2.1]octan-3-yl)-8-fluoro-2-((tetrahydro-1H-pyrrolizin-7a(5H)-yl)methoxy)pyrido[4,3-d]pyrimidin-7-yl)-4-(trifluoromethyl)phenol] stands less than 4.78; under `Fc1cccc(-c2ncc3c(N4C[C@H]5CC[C@@H](C4)N5)nc(OCC45CCCN4CCC5)nc3c2F)c1OC(F)F` [Example 302, 4-((1R,5S)-3,8-diazabicyclo[3.2.1]octan-3-yl)-7-(2-(difluoromethoxy)-3-fluorophenyl)-8-fluoro-2-((hexahydro-1H-pyrrolizin-7a-yl)methoxy)pyrido[4,3-d]pyrimidine], 5.70. Molecule `C#Cc1c(F)ccc2cccc(-c3ncc4c(N5C[C@H]6CC[C@@H](C5)N6)nc(OCC56CCCN5CCC6)nc4c3F)c12` [Example 189, 4-((1R,5S)-3,8-diazabicyclo[3.2.1]octan-3-yl)-7-(8-ethynyl-7-fluoronaphthalen-1-yl)-8-fluoro-2-((tetrahydro-1H-pyrrolizin-7a(5H)-yl)methoxy)pyrido[4,3-d]pyrimidine] had a pIC50 of 7.62.

Consider `COC1(OC)CN2CCCC2(COc2nc(N3C[C@H]4CC[C@@H](C3)N4)c3cnc(-c4cccc5cccc(Cl)c45)c(F)c3n2)C1` (stereo partly drawn) [Example 404, 4-((1R,5S)-3,8-diazabicyclo[3.2.1]octan-3-yl)-7-(8-chloronaphthalen-1-yl)-2-((2,2-dimethoxytetrahydro-1H-pyrrolizin-7a(5H)-yl)methoxy)-8-fluoropyrido[4,3-d]pyrimidine], for which the pIC50 was 5.08. Turning to `Fc1c(-c2cncc3cccc(Cl)c23)ncc2c(N3C[C@H]4CC[C@@H](C3)N4)nc(OC[C@]34CCCN3C[C@@H](F)C4)nc12` [Example 203, 4-((1R,5S)-3,8-diazabicyclo[3.2.1]octan-3-yl)-7-(5-chloroisoquinolin-4-yl)-8-fluoro-2-(((2S,7aR)-2-fluorotetrahydro-1H-pyrrolizin-7a(5H)-yl)methoxy)pyrido[4,3-d]pyrimidine], the pIC50 is 5.66. Molecule `FCCCc1cccc2cccc(-c3ncc4c(N5C[C@H]6CC[C@@H](C5)N6)nc(OCC56CCCN5CCC6)nc4c3F)c12` [Example 255, 4-((1R,5S)-3,8-diazabicyclo[3.2.1]octan-3-yl)-8-fluoro-7-(8-(3-fluoropropyl)naphthalen-1-yl)-2-((hexahydro-1H-pyrrolizin-7a-yl)methoxy)pyrido[4,3-d]pyrimidine] gave a pIC50 of 6.17. Consider `CNC(=O)O[C@@H]1CN2CCC[C@]2(COc2nc(N3C[C@H]4CC[C@@H](C3)N4)c3cnc(-c4cccc5cccc(Cl)c45)c(F)c3n2)C1` [Example 435, (2S,7aR)-7a-(((4-((1R,5S)-3,8-diazabicyclo[3.2.1]octan-3-yl)-7-(8-chloronaphthalen-1-yl)-8-fluoropyrido[4,3-d]pyrimidin-2-yl)oxy)methyl)hexahydro-1H-pyrrolizin-2-yl methylcarbamate], for which the pIC50 is 5.74. On to `Oc1cc(-c2ncc3c(N4C[C@H]5CC[C@@H](C4)N5)nc(OCCc4ccccn4)nc3c2F)c2ccccc2c1` [Example 4, 4-(4-((1R,5S)-3,8-diazabicyclo[3.2.1]octan-3-yl)-8-fluoro-2-(2-(pyridin-2-yl)ethoxy)pyrido[4,3-d]pyrimidin-7-yl)naphthalen-2-ol], for which the pIC50 was 5.07.

Broadly, the pIC50 is the negative decadic logarithm of the IC50, by convention in mol/L.
